{"source": "patent US20130079408A1", "about": "“PERACID AND 2-HYDROXY ORGANIC ACID COMPOSITIONS AND METHODS FOR TREATING ITEMS” (Fresh Express Incorporated, priority 2009, published 2013)", "key": {"[1]": {"test_system": "Listeria innocua ATCC 33090", "experiment": "Suspended cells challenge test at 20 s residence time, no surfactant (Example 2)", "format": "cell-based", "details": "Peroxyacetic acid 0 ppm"}, "[2]": {"test_system": "E. coli K12", "experiment": "Attached cells challenge test on produce leaves (Example 1)", "format": "cell-based", "details": "PAA 0 ppm, 45 F, 45 s"}, "[3]": {"test_system": "Listeria innocua", "experiment": "Attached cells challenge test on produce leaves (Example 1)", "format": "cell-based", "details": "PAA 0 ppm, 45 F, 45 s"}, "[4]": {"test_system": "Pseudomonas aeruginosa (ATCC 9027)", "experiment": "Non-food surface coupon test (Example 6)", "format": "cell-based", "details": "90 sec residence time"}, "[5]": {"test_system": "Lactobacillus plantarum 14917", "experiment": "Suspended cells challenge test at 20 s residence time, no surfactant (Example 2)", "format": "cell-based", "details": "Peroxyacetic acid 0 ppm"}, "[6]": {"test_system": "indigenous microorganisms (Aerobic Plate Counts)", "format": "cell-based"}, "[7]": {"details": "40 C; cited from earlier work"}}}
{"smiles": "CC(O)C(=O)O", "note": "(centres unmarked) [Lactic acid, lactic acid]", "values": [{"measurement": "log reduction of suspended Listeria innocua cells", "setting": "[1]; Lactic Acid 2000 ppm", "result": 0.08}, {"measurement": "log reduction of suspended Listeria innocua cells", "setting": "[1]; Lactic Acid 2500 ppm", "result": 0.19}, {"measurement": "log reduction of suspended Listeria innocua cells", "setting": "[1]; Lactic Acid 3000 ppm", "result": 0.05}, {"measurement": "Attached E. Coli, Romaine", "setting": "[2]; LA 0.6%", "result": 0.24}, {"measurement": "Attached E. Coli, Spinach", "setting": "[2]; LA 0.6%", "result": 0.09}, {"measurement": "Attached E. Coli, Romaine", "setting": "[2]; LA 0.9%", "result": 0.37}, {"measurement": "Attached E. Coli, Spinach", "setting": "[2]; LA 0.9%", "result": 0.42}, {"measurement": "Attached E. Coli, Romaine", "setting": "[2]; LA 1.2%", "result": 1.28}, {"measurement": "Attached E. Coli, Spinach", "setting": "[2]; LA 1.2%", "result": 0.81}, {"measurement": "Attached Listeria, Romaine", "setting": "[3]; LA 0.6%", "result": 1.1}, {"measurement": "Attached Listeria, Spinach", "setting": "[3]; LA 0.6%", "result": 0.1}, {"measurement": "Attached Listeria, Romaine", "setting": "[3]; LA 0.9%", "result": 1.4}, {"measurement": "Attached Listeria, Spinach", "setting": "[3]; LA 0.9%", "result": 0.2}, {"measurement": "Attached Listeria, Romaine", "setting": "[3]; LA 1.2%", "result": 1.5}, {"measurement": "Attached Listeria, Spinach", "setting": "[3]; LA 1.2%", "result": 0.2}, {"measurement": "Log reductions, attached on glass coupons", "setting": "[4]; PA 0 ppm, LA 1,250 ppm", "result": 0.4}, {"measurement": "Log reductions, attached on stainless steel coupons", "setting": "[4]; PA 0 ppm, LA 1,250 ppm", "result": 1.6}, {"measurement": "Log reductions, attached on glass coupons", "setting": "[4]; PA 0 ppm, LA 2,500 ppm", "result": 1.7}, {"measurement": "Log reductions, attached on plastic coupons", "setting": "[4]; PA 0 ppm, LA 2,500 ppm", "result": 0.6}, {"measurement": "Log reductions, attached on stainless steel coupons", "setting": "[4]; PA 0 ppm, LA 2,500 ppm", "result": 1.9}, {"measurement": "Log reductions, attached on wood coupons", "setting": "[4]; PA 0 ppm, LA 2,500 ppm", "result": 1.4}, {"measurement": "Log reductions, attached on plastic coupons", "setting": "[4]; PA 0 ppm, LA 5,000 ppm", "result": 1.2}, {"measurement": "Log reductions, attached on wood coupons", "setting": "[4]; PA 0 ppm, LA 7,500 ppm", "result": 3.6}, {"measurement": "log reduction of suspended Lactobacillus plantarum cells", "setting": "[5]; Lactic Acid 2000 ppm", "result": 0.00}, {"measurement": "log reduction of suspended Lactobacillus plantarum cells", "setting": "[5]; Lactic Acid 2500 ppm", "result": 0.02}, {"measurement": "log reduction of suspended Lactobacillus plantarum cells", "setting": "[5]; Lactic Acid 3000 ppm", "result": 0.01}]}
{"smiles": "CC(=O)OO", "note": "[Peroxyacetic acid, peroxyacetic acid]", "values": [{"measurement": "Aerobic Plate Counts Log Reduction", "setting": "[6]", "result": 0.7, "unit": "Log cfu/g"}, {"measurement": "Aerobic Plate Counts after wash", "setting": "[6]", "result": 2.7, "unit": "Log cfu/g"}, {"measurement": "log10 reduction of indigenous microorganism on the Romaine leaf", "setting": "[6]", "result": 0.7, "unit": "log10"}, {"measurement": "apparent equilibrium constant Kap", "setting": "[7]", "result": "about 2.21"}, {"measurement": "Log reductions, attached on glass coupons", "setting": "[4]; PA 60 ppm, LA 0 ppm", "result": 0.2}, {"measurement": "Log reductions, attached on plastic coupons", "setting": "[4]; PA 60 ppm, LA 0 ppm", "result": 1.2}, {"measurement": "Log reductions, attached on stainless steel coupons", "setting": "[4]; PA 60 ppm, LA 0 ppm", "result": 1.5}, {"measurement": "Log reductions, attached on glass coupons", "setting": "[4]; PA 80 ppm, LA 0 ppm", "result": 0.0}, {"measurement": "Log reductions, attached on plastic coupons", "setting": "[4]; PA 80 ppm, LA 0 ppm", "result": 0.9}, {"measurement": "Log reductions, attached on stainless steel coupons", "setting": "[4]; PA 100 ppm, LA 0 ppm", "result": 1.4}, {"measurement": "Log reductions, attached on wood coupons", "setting": "[4]; PA 100 ppm, LA 0 ppm", "result": 1.0}, {"measurement": "Log reductions, attached on wood coupons", "setting": "[4]; PA 140 ppm, LA 0 ppm", "result": 0.8}]}
